What was measured:
[1] = 298.15 K; 101.33 kPa; Liquid
[2] = refractive index (Na D-line) (dimensionless); settings: 298.15 K; 101.33 kPa; Liquid; Standard Abbe refractometry
[3] = xn = mol fraction of the nth substance listed; settings: 298.15 K, 101 kPa, Liquid, Vibrating tube method
[4] = refractive index (Na D-line) (dimensionless); xn = mol fraction of the nth substance listed; settings: 298.15 K, 101 kPa, Liquid, Standard Abbe refractometry

CC(=O)CC(C)=O [2,4-pentanedione]
Settings	mass density [kg/m3]	refractive index
[1]	971	–
[2]	–	1.4509

CC(=O)CC(C)=O [2,4-pentanedione] + ClC(Cl)Cl
Settings	mass density, [3] [kg/m3]	refractive index, [4]
x2 = 0.0498	988.5	1.4498
x2 = 0.0996	1009.2	1.4497
x2 = 0.2007	1052.6	1.4496
x2 = 0.3002	1097.2	1.4494
x2 = 0.4002	1144.3	1.4492
x2 = 0.4999	1193.6	1.4487
x2 = 0.5997	1245.4	1.4482
x2 = 0.7007	1300.4	1.4475
x2 = 0.7997	1356.8	1.4465
x2 = 0.899	1415.6	1.445
x2 = 0.9494	1446.3	1.4442

ClC(Cl)Cl [trichloromethane]
Settings	mass density [kg/m3]	refractive index
[1]	1478	–
[2]	–	1.443

Source: the NIST ThermoML archive (doi:10.1021/je100747y)
